Laboratory results as given in article PMC8398766, “Do Small Molecules Activate the TrkB Receptor in the Same Manner as BDNF? Limitations of Published TrkB Low Molecular Agonists and Screening for Novel TrkB Orthosteric Agonists” (Pharmaceuticals, 2021).

What was measured:
Experiment in all cases: BioPrint Profile Panel
Format in all cases: binding
[1] = target: T1, 5-HT1D (Rattus norvegicus, UniProt P28565); settings: Agonist, Receptor, read-out: % of specific inhibition
T1 construct: purchased Eurofins Discovery (Cerep) BioPrint Profile Panel
Source text: (§1) The BioPrint® Profile Panel service offered by Eurofins Discovery (Poitiers, France) was chosen to perform selectivity analysis.

[2] = target: T2, 5-HT6 (Homo sapiens, UniProt P50406); settings: Agonist, Receptor, read-out: % of specific inhibition
T2 construct: purchased Eurofins Discovery (Cerep) BioPrint Profile Panel
Source text: as §1

[3] = target: T3, A2B (Homo sapiens, UniProt P29275); settings: Antagonist, Receptor
T3 construct: purchased Eurofins Discovery (Cerep) BioPrint Profile Panel
Source text: as §1

[4] = target: T4, BB3 (Homo sapiens, UniProt P32247); settings: Agonist, Receptor, read-out: % of specific inhibition
T4 construct: purchased Eurofins Discovery (Cerep) BioPrint Profile Panel
Source text: as §1

[5] = target: T5, CRF1 (Homo sapiens, UniProt P34998); settings: Agonist, Receptor, read-out: % of specific inhibition
T5 construct: purchased Eurofins Discovery (Cerep) BioPrint Profile Panel
Source text: as §1

[6] = test system: Ca2+ channel (diltiazem site); settings: 10 μM; Antagonist (diltiazem site); Ion Channel
Source text: as §1

[7] = test system: Ca2+ channel (verapamil site); settings: 10 μM; Antagonist (verapamil site); Ion Channel
Source text: as §1

[8] = test system: Ca2+ channel; settings: 10 μM, Antagonist, Ion Channel
Source text: as §1

[9] = target: T6, EP2 (Homo sapiens, UniProt P43116); settings: Agonist, Receptor, read-out: % of specific inhibition
T6 construct: purchased Eurofins Discovery (Cerep) BioPrint Profile Panel
Source text: as §1

[10] = target: T7, ETB (Homo sapiens, UniProt P24530); settings: Agonist, Receptor, read-out: % of specific inhibition
T7 construct: purchased Eurofins Discovery (Cerep) BioPrint Profile Panel
Source text: as §1

[11] = target: T8, Estrogen Erα (Homo sapiens, UniProt P03372); settings: Agonist, Receptor, read-out: % of specific inhibition
T8 construct: purchased Eurofins Discovery (Cerep) BioPrint Profile Panel
Source text: as §1

[12] = target: T9, FP (Homo sapiens, UniProt P43088); settings: Agonist, Receptor, read-out: % of specific inhibition
T9 construct: purchased Eurofins Discovery (Cerep) BioPrint Profile Panel
Source text: as §1

[13] = test system: GABA transporter; settings: 10 μM, Antagonist
Source text: as §1

[14] = target: T10, GR (Homo sapiens, UniProt P04150); settings: Agonist, Receptor, read-out: % of specific inhibition
T10 construct: purchased Eurofins Discovery (Cerep) BioPrint Profile Panel
Source text: as §1

[15] = target: T11, H1 (Homo sapiens, UniProt P35367); settings: Antagonist, Receptor, read-out: % of specific inhibition
T11 construct: purchased Eurofins Discovery (Cerep) BioPrint Profile Panel
Source text: as §1

[16] = target: T12, H4 (Homo sapiens, UniProt Q9H3N8); settings: Agonist, Receptor, read-out: % of specific inhibition
T12 construct: purchased Eurofins Discovery (Cerep) BioPrint Profile Panel
Source text: as §1

[17] = target: T13, LXRβ (Homo sapiens, UniProt P55055); settings: Agonist, Receptor, read-out: % of specific inhibition
T13 construct: purchased Eurofins Discovery (Cerep) BioPrint Profile Panel
Source text: as §1

[18] = target: T14, M1 (Homo sapiens, UniProt P11229); settings: Antagonist, Receptor, read-out: % of specific inhibition
T14 construct: purchased Eurofins Discovery (Cerep) BioPrint Profile Panel
Source text: as §1

[19] = target: T15, M3 (Homo sapiens, UniProt P20309); settings: Antagonist, Receptor, read-out: % of specific inhibition
T15 construct: purchased Eurofins Discovery (Cerep) BioPrint Profile Panel
Source text: as §1

[20] = target: T16, MAO-A (Rattus norvegicus, UniProt P21396); settings: Antagonist, Non-Kinase Enzyme, read-out: % of specific inhibition
T16 construct: purchased Eurofins Discovery (Cerep) BioPrint Profile Panel
Source text: as §1

[21] = target: T17, MC4 (Homo sapiens, UniProt P32245); settings: Agonist, Receptor, read-out: % of specific inhibition
T17 construct: purchased Eurofins Discovery (Cerep) BioPrint Profile Panel
Source text: as §1

[22] = target: T18, MCH1 (Homo sapiens, UniProt Q99705); settings: Agonist, Receptor, read-out: % of specific inhibition
T18 construct: purchased Eurofins Discovery (Cerep) BioPrint Profile Panel
Source text: as §1

[23] = target: T19, MT1 (ML1A) (Homo sapiens, UniProt P48039); settings: Agonist, Receptor, read-out: % of specific inhibition
T19 construct: purchased Eurofins Discovery (Cerep) BioPrint Profile Panel
Source text: as §1

[24] = test system: MT3 (ML2); settings: 10 μM; Agonist; Receptor
Source text: as §1

[25] = test system: N muscle-type; settings: 10 μM; Antagonist; Receptor
Source text: as §1

[26] = target: T20, N neuronal α4β2 (Homo sapiens, UniProt P17787+P43681); settings: Agonist, Receptor, read-out: % of specific inhibition
T20 construct: purchased Eurofins Discovery (Cerep) BioPrint Profile Panel
Source text: as §1

[27] = target: T21, NK2 (Homo sapiens, UniProt P21452); settings: Agonist, Receptor, read-out: % of specific inhibition
T21 construct: purchased Eurofins Discovery (Cerep) BioPrint Profile Panel
Source text: as §1

[28] = test system: NMDA; settings: 10 μM; Antagonist; Ion Channel
Source text: as §1

[29] = test system: Na+ channel; settings: 10 μM; Antagonist; Ion Channel
Source text: as §1

[30] = target: T22, PAF (Homo sapiens, UniProt P25105); settings: Agonist, Receptor, read-out: % of specific inhibition
T22 construct: purchased Eurofins Discovery (Cerep) BioPrint Profile Panel
Source text: as §1

[31] = test system: PCP; settings: 10 μM; Antagonist; Ion Channel
Source text: as §1

[32] = target: T23, PPARγ (Homo sapiens, UniProt P37231); settings: Agonist, Receptor, read-out: % of specific inhibition
T23 construct: purchased Eurofins Discovery (Cerep) BioPrint Profile Panel
Source text: as §1

[33] = test system: TNF-α; settings: 10 μM; Agonist; Receptor
Source text: as §1

[34] = target: T24, V1a (Homo sapiens, UniProt P37288); settings: Agonist, Receptor, read-out: % of specific inhibition
T24 construct: purchased Eurofins Discovery (Cerep) BioPrint Profile Panel
Source text: as §1

[35] = target: T25, VPAC1 (Homo sapiens, UniProt P32241); settings: Agonist, Receptor, read-out: % of specific inhibition
T25 construct: purchased Eurofins Discovery (Cerep) BioPrint Profile Panel
Source text: as §1

[36] = target: T26, Y1 (Homo sapiens, UniProt P25929); settings: Agonist, Receptor, read-out: % of specific inhibition
T26 construct: purchased Eurofins Discovery (Cerep) BioPrint Profile Panel
Source text: as §1

[37] = target: T27, dopamine transporter (Homo sapiens, UniProt Q01959); settings: Antagonist, read-out: % of specific inhibition
T27 construct: purchased Eurofins Discovery (Cerep) BioPrint Profile Panel
Source text: as §1

[38] = target: T28, glucagon (Homo sapiens, UniProt P47871); settings: Agonist, Receptor, read-out: % of specific inhibition
T28 construct: purchased Eurofins Discovery (Cerep) BioPrint Profile Panel
Source text: as §1

[39] = target: T29, motilin (Homo sapiens, UniProt O43193); settings: Agonist, Receptor, read-out: % of specific inhibition
T29 construct: purchased Eurofins Discovery (Cerep) BioPrint Profile Panel
Source text: as §1

[40] = target: T30, norepinephrine transporter (Homo sapiens, UniProt P23975); settings: Antagonist, read-out: % of specific inhibition
T30 construct: purchased Eurofins Discovery (Cerep) BioPrint Profile Panel
Source text: as §1

[41] = target: T31, µ (MOP) (Homo sapiens, UniProt P35372); settings: Agonist, Receptor, read-out: % of specific inhibition
T31 construct: purchased Eurofins Discovery (Cerep) BioPrint Profile Panel
Source text: as §1

[42] = target: T32, α1A (Homo sapiens, UniProt P35348); settings: Antagonist, Receptor, read-out: % of specific inhibition
T32 construct: purchased Eurofins Discovery (Cerep) BioPrint Profile Panel
Source text: as §1

[43] = target: T33, α2A (Homo sapiens, UniProt P08913); settings: Antagonist, Receptor, read-out: % of specific inhibition
T33 construct: purchased Eurofins Discovery (Cerep) BioPrint Profile Panel
Source text: as §1

[44] = target: T34, α2B (Homo sapiens, UniProt P18089); settings: Antagonist, Receptor, read-out: % of specific inhibition
T34 construct: purchased Eurofins Discovery (Cerep) BioPrint Profile Panel
Source text: as §1

[45] = target: T35, β1 (Homo sapiens, UniProt P08588); settings: Agonist, Receptor, read-out: % of specific inhibition
T35 construct: purchased Eurofins Discovery (Cerep) BioPrint Profile Panel
Source text: as §1

T3 sequence (P29275 whole entry): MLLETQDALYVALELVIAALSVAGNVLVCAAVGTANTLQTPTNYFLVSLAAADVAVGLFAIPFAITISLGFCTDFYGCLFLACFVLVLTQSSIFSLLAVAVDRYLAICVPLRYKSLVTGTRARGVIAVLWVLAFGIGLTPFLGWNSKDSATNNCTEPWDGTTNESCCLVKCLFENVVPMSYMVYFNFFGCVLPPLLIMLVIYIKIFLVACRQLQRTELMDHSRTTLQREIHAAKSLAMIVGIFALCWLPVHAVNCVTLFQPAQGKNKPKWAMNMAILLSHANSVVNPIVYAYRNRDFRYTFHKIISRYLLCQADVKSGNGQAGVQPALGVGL
T20 sequence (P43681 29-627 limits assumed): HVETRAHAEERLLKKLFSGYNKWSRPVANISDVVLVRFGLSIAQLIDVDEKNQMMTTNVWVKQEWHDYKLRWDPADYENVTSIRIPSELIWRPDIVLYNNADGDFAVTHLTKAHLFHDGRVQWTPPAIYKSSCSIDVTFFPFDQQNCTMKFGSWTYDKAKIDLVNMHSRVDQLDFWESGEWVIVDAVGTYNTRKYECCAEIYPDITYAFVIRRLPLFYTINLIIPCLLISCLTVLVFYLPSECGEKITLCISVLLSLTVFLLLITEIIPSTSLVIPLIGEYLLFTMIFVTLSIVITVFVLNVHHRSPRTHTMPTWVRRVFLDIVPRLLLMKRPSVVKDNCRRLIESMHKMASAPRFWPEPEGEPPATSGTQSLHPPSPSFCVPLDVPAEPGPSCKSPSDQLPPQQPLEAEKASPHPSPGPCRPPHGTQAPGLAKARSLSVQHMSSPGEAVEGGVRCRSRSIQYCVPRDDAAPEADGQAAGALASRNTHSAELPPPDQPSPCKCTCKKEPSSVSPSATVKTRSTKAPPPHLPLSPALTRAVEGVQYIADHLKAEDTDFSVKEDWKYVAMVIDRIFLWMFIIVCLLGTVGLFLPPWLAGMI
T20 sequence (P17787 26-502): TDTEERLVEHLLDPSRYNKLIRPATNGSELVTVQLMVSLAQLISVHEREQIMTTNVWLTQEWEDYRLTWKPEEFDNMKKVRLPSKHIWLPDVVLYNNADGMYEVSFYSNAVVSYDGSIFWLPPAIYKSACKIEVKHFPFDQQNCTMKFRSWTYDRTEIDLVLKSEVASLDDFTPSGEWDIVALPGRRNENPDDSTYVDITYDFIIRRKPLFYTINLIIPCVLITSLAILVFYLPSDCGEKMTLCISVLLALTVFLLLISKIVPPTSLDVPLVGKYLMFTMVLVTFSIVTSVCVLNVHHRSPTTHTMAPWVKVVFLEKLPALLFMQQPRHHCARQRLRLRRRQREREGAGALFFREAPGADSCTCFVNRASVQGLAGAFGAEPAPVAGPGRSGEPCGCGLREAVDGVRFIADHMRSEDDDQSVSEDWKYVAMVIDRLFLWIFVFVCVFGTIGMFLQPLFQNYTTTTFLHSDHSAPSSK
T2 sequence (P50406 whole entry): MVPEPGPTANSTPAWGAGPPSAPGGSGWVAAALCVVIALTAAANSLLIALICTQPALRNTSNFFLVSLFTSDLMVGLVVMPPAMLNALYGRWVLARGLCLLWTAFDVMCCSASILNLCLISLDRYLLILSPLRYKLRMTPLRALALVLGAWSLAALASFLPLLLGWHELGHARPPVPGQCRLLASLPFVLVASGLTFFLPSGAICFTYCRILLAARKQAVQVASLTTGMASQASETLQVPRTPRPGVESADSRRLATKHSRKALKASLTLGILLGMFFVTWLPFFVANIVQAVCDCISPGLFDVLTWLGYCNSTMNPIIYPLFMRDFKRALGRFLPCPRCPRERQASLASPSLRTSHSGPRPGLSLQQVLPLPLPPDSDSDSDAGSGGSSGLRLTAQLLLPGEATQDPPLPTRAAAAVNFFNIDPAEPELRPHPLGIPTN
T12 sequence (Q9H3N8 whole entry): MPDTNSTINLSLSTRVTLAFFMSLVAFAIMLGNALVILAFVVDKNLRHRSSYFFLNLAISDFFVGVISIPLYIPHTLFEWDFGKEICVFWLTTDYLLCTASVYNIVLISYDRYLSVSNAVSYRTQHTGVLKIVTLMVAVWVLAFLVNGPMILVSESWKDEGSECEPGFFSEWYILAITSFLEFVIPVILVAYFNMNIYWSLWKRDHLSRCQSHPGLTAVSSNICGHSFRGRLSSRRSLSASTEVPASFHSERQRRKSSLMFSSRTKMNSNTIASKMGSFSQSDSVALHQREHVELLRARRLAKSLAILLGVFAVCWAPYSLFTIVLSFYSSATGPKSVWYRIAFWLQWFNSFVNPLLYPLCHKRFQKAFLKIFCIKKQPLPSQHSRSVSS
T28 sequence (P47871 26-477): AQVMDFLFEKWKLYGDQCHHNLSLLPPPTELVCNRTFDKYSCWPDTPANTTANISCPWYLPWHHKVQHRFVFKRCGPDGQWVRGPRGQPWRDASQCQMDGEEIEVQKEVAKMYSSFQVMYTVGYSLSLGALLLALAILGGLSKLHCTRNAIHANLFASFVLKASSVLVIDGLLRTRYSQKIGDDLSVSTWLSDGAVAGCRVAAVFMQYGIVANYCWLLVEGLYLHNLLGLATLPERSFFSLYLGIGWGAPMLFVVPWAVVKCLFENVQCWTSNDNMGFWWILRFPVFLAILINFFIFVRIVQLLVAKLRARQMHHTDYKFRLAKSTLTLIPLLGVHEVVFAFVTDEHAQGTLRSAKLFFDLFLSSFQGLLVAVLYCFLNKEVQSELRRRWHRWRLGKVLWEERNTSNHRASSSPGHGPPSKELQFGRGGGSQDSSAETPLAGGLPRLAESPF
T8 sequence (P03372 whole entry): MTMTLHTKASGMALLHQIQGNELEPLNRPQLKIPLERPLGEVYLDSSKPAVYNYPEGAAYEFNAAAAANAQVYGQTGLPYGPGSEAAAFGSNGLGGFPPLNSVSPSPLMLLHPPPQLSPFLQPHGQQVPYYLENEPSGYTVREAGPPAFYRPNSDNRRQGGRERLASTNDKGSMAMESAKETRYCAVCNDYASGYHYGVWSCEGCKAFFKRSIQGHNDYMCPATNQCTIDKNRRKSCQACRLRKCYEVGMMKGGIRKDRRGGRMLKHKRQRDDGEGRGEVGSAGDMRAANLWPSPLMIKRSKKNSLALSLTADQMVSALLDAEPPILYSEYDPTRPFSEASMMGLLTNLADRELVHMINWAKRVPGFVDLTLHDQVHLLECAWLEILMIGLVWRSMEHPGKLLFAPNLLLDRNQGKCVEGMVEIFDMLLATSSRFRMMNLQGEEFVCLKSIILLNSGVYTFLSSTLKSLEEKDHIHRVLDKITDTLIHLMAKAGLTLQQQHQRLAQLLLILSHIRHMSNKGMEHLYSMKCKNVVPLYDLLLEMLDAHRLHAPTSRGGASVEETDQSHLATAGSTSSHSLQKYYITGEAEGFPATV
T33 sequence (P08913 whole entry): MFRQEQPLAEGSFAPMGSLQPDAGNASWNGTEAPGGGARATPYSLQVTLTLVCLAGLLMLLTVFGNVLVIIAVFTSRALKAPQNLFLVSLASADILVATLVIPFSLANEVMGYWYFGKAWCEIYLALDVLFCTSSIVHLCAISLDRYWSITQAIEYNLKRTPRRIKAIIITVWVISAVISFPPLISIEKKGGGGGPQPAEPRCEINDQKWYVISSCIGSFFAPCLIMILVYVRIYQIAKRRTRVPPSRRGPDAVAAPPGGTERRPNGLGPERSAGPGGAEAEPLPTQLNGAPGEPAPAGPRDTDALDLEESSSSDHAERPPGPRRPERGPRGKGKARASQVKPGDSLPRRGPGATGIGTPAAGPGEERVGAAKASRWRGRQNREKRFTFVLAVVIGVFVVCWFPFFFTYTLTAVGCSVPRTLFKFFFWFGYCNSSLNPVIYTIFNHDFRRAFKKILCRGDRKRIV
T31 sequence (P35372 whole entry): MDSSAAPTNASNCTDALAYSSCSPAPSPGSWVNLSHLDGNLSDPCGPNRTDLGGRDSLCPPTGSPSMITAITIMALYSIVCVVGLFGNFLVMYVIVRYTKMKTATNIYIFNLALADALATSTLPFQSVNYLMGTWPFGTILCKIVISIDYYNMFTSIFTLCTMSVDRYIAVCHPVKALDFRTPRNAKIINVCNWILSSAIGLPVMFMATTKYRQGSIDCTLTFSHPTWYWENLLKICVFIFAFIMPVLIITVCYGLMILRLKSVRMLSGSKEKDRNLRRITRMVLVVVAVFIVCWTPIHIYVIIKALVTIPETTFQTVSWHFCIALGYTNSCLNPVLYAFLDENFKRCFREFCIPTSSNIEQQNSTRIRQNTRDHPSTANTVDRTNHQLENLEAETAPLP
T30 sequence (P23975 whole entry): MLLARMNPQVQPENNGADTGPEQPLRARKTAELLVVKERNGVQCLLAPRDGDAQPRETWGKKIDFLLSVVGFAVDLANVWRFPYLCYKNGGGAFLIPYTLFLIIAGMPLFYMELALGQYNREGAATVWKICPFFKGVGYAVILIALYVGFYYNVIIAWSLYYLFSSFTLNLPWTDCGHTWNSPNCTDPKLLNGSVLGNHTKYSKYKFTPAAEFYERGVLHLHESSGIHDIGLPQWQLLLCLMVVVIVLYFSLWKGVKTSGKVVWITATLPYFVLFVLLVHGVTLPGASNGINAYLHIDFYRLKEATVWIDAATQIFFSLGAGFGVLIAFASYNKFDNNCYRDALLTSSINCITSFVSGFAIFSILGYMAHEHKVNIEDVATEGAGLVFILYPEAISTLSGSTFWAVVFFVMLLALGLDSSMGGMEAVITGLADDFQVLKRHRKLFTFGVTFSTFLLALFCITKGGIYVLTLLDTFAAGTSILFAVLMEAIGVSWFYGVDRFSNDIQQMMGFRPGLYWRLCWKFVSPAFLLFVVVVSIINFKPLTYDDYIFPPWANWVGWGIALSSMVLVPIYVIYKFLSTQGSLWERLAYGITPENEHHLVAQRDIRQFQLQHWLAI

SMILES: O=c1cc(-c2ccccc2)oc2c(O)c(O)ccc12 [7,8-DHF, 7,8-dihydroxyflavone]
- inhibition at 10 µM [1]: -8%
- inhibition at 10 µM [2]: -3%
- % Inhibition of Control Specific Binding ([3]; 10 μM): 78.3%
- inhibition at 10 µM ([3]; read-out: % Inhibition of Control Specific Binding): 78%
- inhibition at 10 µM [4]: 11%
- inhibition at 10 µM [5]: 5%
- % of specific inhibition [6]: -15%
- % of specific inhibition [7]: 2%
- % of specific inhibition ([8]; first unspecified Ca2+ channel entry): -4%
- % of specific inhibition ([8]; second unspecified Ca2+ channel entry): -6%
- inhibition at 10 µM [9]: 2%
- inhibition at 10 µM [10]: -26%
- inhibition at 10 µM [11]: 7%
- inhibition at 10 µM [12]: 6%
- % of specific inhibition [13]: -2%
- inhibition at 10 µM [14]: -1%
- inhibition at 10 µM [15]: -5%
- inhibition at 10 µM [16]: -4%
- inhibition at 10 µM [17]: 49%
- inhibition at 10 µM [18]: -4%
- inhibition at 10 µM [19]: -7%
- inhibition at 10 µM [20]: 35%
- inhibition at 10 µM [21]: -5%
- inhibition at 10 µM [22]: -12%
- inhibition at 10 µM [23]: 20%
- % Inhibition of Control Specific Binding [24]: 86%
- % of specific inhibition [25]: -20%
- inhibition at 10 µM [26]: 5%
- inhibition at 10 µM [27]: -2%
- % of specific inhibition [28]: 11%
- % of specific inhibition [29]: -11%
- inhibition at 10 µM [30]: -20%
- % of specific inhibition [31]: -3%
- inhibition at 10 µM [32]: 21%
- % of specific inhibition [33]: 2%
- inhibition at 10 µM [34]: -11%
- inhibition at 10 µM [35]: -13%
- inhibition at 10 µM [36]: 8%
- inhibition at 10 µM [37]: 4%
- inhibition at 10 µM [38]: 3%
- inhibition at 10 µM [39]: -2%
- inhibition at 10 µM [40]: -1%
- inhibition at 10 µM [41]: -2%
- inhibition at 10 µM [42]: 2%
- inhibition at 10 µM [43]: -5%
- inhibition at 10 µM [44]: -2%
- inhibition at 10 µM [45]: -5%
